Legend:
Format in all cases: biochemical
[1] = target: T1, CDK2/CyclinA2 (Homo sapiens, UniProt P24941); assay: CDK2/CyclinA2 ChEF Assay (AQT, Table C); details: 10xKm; for Ki: AQT ChEF, read-out: CDK2/CCNA2 AQT10xKm Ki: Average Ki; for CDK2/CCNA2 AQT10xKm Ki: CDK2/A2 Selectivity over CDK1/B1 / CDK2/CCNA2 AQT10xKm Ki: CDK2/A2 selectivity over CDK4/D1 / CDK2/CCNA2 AQT10xKm Ki: CDK2/A2 selectivity over CDK6/D3 / CDK2/CCNA2 AQT10xKm Ki: CDK2/A2 Selectivity over CDK9: AQT
T1 construct: Wild-type, full length CDK2 in complex with wildtype, full length CyclinA2: Carna Cat #04-103; purchased Carna 04-103
Description: 16 nL of 1000× compound in 100% DMSO is added to a 384-well low volume, black assay plate. 12 μL of 1.3×CDK2/CyclinA2 (Wild-type, full length CDK2 in complex with wildtype, full length CyclinA2: Carna Cat #04-103 diluted in assay buffer (54 mM Hepes, 0.012% Brij-35, 10 mM MgCl2, 0.55 mM EGTA, 1% Glycerol, 0.02% BSA, and 1.2 mM DTT) is added to the plates on top of the compound and pre-incubated for 30 minutes at room temperature. Following the incubation, 4 uL of 4×Sox-chromophore (CSox) labeled peptide substrate (AQT0297, AssayQuant) & ATP diluted in assay buffer is added to the plate to initiate the reaction. The assay is incubated at room temperature for 90 min after initiation. The CSox peptide substrate is phosphorylated by CDK2/A2 upon ATP hydrolysis.
(§1) The fluorescent intensity measurement of the assay plate is read on a microplate reader once the assay is initiated and again at the completion of the assay. Phosphorylation of the CSox-based peptide substrate sensor results in an immediate increase in fluorescence. These raw fluorescence intensity values are normalized to calculate percent inhibition, which are fit to a four-parameter logistic curve and IC50 values are calculated. IC50 values are converted to Ki using substrate, KM^app values, and the Cheng-Prusoff equation.

[2] = target: CDK9/CyclinT1 (Homo sapiens, UniProt P50750); assay: CDK9/CyclinT1 ChEF Assay (AQT, Table C); set-up: Wild-type, full length CDK9 in complex with wildtype, CyclinT1 (1-259): Biortus Cat #BP480/792/691; purchased Biortus BP480/792/691; details: 10XKm
Description: 16 nL of 1000× compound in 100% DMSO is added to a 384-well low volume, black assay plate. 12 μL of 1.3×CDK9/CyclinT1 (Wild-type, full length CDK9 in complex with wildtype, CyclinT1 (1-259): Biortus Cat #BP480/792/691) diluted in assay buffer (54 mM Hepes, 0.012% Brij-35, 10 mM MgCl2, 0.55 mM EGTA, 1% Glycerol, 0.02% BSA, and 1.2 mM DTT) is added to the plates on top of the compound and pre-incubated for 30 minutes at room temperature. Following the incubation, 4 μL of 4×Sox-chromophore (CSox) labeled peptide substrate (AQT0449, AssayQuant) & ATP diluted in assay buffer is added to the plate to initiate the reaction. The assay is incubated at room temperature for 180 min after initiation. The CSox peptide substrate is phosphorylated by CDK9/T1 upon ATP hydrolysis.
as §1

[3] = target: T1, CDK2/CyclinA2; assay: CDK2/Cyclin A2 Mobility Shift Assay (Caliper, Table B); details: for Ki: Caliper mobility shift, 10xKm, read-out: CDK2/CCNA2 Caliper 10xKm Ki: Average Ki
Description: 10 nL of 2000× compound in 100% DMSO is added to a 384-well polypropylene assay plate. 15 μL of 1.3×CDK2/A2 and 1.3× fluorescent substrate (Wild-type, full length CDK2 in complex with wildtype, full length CyclinA2: Carna Cat #04-103 and FL-Peptide 18: PerkinElmer Cat #760362) diluted in kinase buffer (50 mM Hepes, 0.01% Brij-35, 10 mM MgCl2, 1 mM EGTA, 0.05% BSA, and 2 mM DTT) is added to the plates on top of the compound, mixed, and pre-incubated for 30 minutes at room temperature. The fluorescently labeled peptide substrate is phosphorylated by CDK2/A2 upon ATP hydrolysis. Following the incubation, 5 μL of 4×ATP diluted in kinase buffer is added to the plate to initiate the reaction. Following the 30-minute incubation, the reaction is stopped by adding 75 μL of stopping buffer containing 0.5 M EDTA.
The assay plate is then read on a Lab Chip EZ Reader which separates the fluorescently labeled substrate and product peptides through a mobility difference. The phosphorylation of the substrate imparts a negative charge, which allows differences in separation as both are pulled through the microfluidic chip. The ratio of substrate and product values are used to generate percent conversion. These raw percent conversion values are normalized to calculate percent inhibition, which are fit to a four-parameter logistic curve and IC50 values are calculated. IC50 values are converted to Ki through using substrate and Km^app values, and the Cheng-Prusoff equation.

[4] = target: T1, CDK2/CyclinA2; assay: CDK2/CyclinA2 ChEF Assay (Table A); details: for Ki: 10xKm, read-out: CDK2/CCNA2 ChEF 10xKm Ki: Average Ki
Description: 500 nL of 50× compound in 100% DMSO is added to a 384-well low volume, white assay plate. 19.5 μL of 1.3×CDK2/CyclinA2 (Wild-type, full length CDK2 in complex with wildtype, full length CyclinA2: Carna Cat #04-103 diluted in assay buffer (50 mM Hepes, 0.01% Brij-35, 10 mM MgCl2, 0.5 mM EGTA, 1% Glycerol, and 1.2 mM DTT) is added to the plates on top of the compound and pre-incubated for 30 minutes at room temperature. Following the incubation, 5 μL of 5×Sox-chromophore (CSox) labeled peptide substrate (AQT0255, AssayQuant) & ATP diluted in assay buffer is added to the plate to initiate the reaction. The assay is incubated at room temperature for 45 min after initiation. The CSox peptide substrate is phosphorylated by CDK2/A2 upon ATP hydrolysis.
as §1, with “assay plate for all assays described above is read” for “assay plate is read”

CDK9/CyclinT1, sequence (P50750 whole entry): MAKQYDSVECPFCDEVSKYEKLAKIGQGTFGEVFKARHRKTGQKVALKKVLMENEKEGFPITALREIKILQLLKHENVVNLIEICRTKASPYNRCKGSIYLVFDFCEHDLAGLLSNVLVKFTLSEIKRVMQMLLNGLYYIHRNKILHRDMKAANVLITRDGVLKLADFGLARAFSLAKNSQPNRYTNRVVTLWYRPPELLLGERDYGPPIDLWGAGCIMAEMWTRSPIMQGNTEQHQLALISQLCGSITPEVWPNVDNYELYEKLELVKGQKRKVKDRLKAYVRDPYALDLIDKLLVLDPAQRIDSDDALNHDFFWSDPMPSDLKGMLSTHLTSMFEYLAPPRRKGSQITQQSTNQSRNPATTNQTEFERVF
CDK9/CyclinT1, sequence (O60563 1-259 partner limits assumed): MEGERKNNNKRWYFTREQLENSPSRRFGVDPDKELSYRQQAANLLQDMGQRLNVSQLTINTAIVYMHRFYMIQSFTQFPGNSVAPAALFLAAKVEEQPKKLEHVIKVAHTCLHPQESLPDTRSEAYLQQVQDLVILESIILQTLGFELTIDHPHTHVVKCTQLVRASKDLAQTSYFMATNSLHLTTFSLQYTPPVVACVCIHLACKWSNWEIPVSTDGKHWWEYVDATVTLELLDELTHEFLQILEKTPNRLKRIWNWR

Ki [1] [nM] | CDK2/CCNA2 AQT10xKm Ki: CDK2/A2 Selectivity over CDK1/B1 [1] | CDK2/CCNA2 AQT10xKm Ki: CDK2/A2 selectivity over CDK4/D1 [1] | CDK2/CCNA2 AQT10xKm Ki: CDK2/A2 selectivity over CDK6/D3 [1] | CDK2/CCNA2 AQT10xKm Ki: CDK2/A2 Selectivity over CDK9 [1] | Ki [2] [nM] | Ki [3] [nM] | CDK2/CCNA2 Caliper 10xKm Ki: CDK2/A2 Selectivity over CDK1/B1 ([3]; Caliper) | CDK2/CCNA2 Caliper 10xKm Ki: CDK2/A2 Selectivity over CDK9 ([3]; Caliper) | Ki [4] [nM] | CDK2/CCNA2 ChEF 10xKm Ki: CDK2/A2 Selectivity over CDK9/T1 [4] | CDK2/CCNA2 Caliper 10xKm Ki: CDK2/A2 Selectivity over CDK6/D3 ([3]; Caliper, selectivity over CDK6/D3) | Compound
< 1 | A (A>10) | A (A>10) | A (A>10) | A (A>10) | 25 to 100 |  |  |  |  |  |  | NS(=O)(=O)c1ccc2cc1OCCCCCNC(=O)O[C@@H]1CC[C@@H](C1)c1cnc(nc1)N2 (stereo in doubt) [Compound 105, rel-(2S,5R)-7-oxo-6,14-dioxa-8,20,22,25-tetraazatetracyclo[19.2.2.1^{2,5}.1^{15,19}]heptacosa-1(23),15,17,19(26),21,24-hexaene-16-sulfonamide]
< 1 | A (A>10) |  |  | A (A>10) | 25 to 100 | 1 to 25 | A (A>10) | A (A>10) | < 1 | A (A>10) |  | O=C1NCCCCCCn2cc(cn2)S(=O)(=O)N2CCC(CC2)Nc2cc([nH]n2)[C@H]2CC[C@H](C2)O1 [Compound 97, (1^1S,1^3R,2^4Z,6^4E)-2^1H,6^1H-15-oxa-5-thia-3,13-diaza-4(4,1)-piperidina-2(5,3),6(4,1)-dipyrazola-1(1,3)-cyclopentanacyclopentadecaphan-14-one 5,5-dioxide]
< 1 | A (A>10) | A (A>10) | A (A>10) | A (A>10) | 25 to 100 | < 1 | A (A>10) | A (A>10) | < 1 | A (A>10) | A (A>10) | O=C1NCCCCCCNS(=O)(=O)c2ccc(c(F)c2)Nc2cc([nH]n2)[C@H]2CC[C@H](C2)O1 [Compound 91, (1^1S,1^3R,Z)-4^2-fluoro-2^1H-15-oxa-5-thia-3,6,13-triaza-2(5,3)-pyrazola-4(1,4)-benzena-1(1,3)-cyclopentanacyclopentadecaphan-14-one 5,5-dioxide]
